# Laboratory results: patent publication EP3319959B1, “HETERO-HALO INHIBITORS OF HISTONE DEACETYLASE” (Alkermes, Inc., priority 2015, dated 2017)
# Experiments:
# recombinant human HDACs = experiment: HDAC enzymatic assay (LabChip capillary electrophoresis); format: biochemical; conditions: 5 nM HDAC enzyme, 1 uM substrate, 5 hours pre-incubation, 17 hours reaction at 25°C; isoform not given
# Protocol: All recombinant human HDACs were purchased from BPS Bioscience. The substrate, FAM-TSRHK(AC)KL-CONH, was synthesized at NanoSyn. Final assay reactions contained 100 mM HEPES (pH 7.5), 50 mM KCl, 0.1% BSA, 0.01% Triton X-100, 1% DMSO, 1 uM substrate and 5 nM HDAC enzyme. Enzyme and compounds were pre-incubated at 25°C for 5 hours and reactions were initiated by addition of substrate. 10 uL reactions were incubated for 17 hours at 25°C and terminated by the addition of 40 uL of buffer containing 100 mM HEPES (pH 7.5), 0.1% BSA, 0.01% Triton X-100 and 0.05% SDS. Substrate and product peptides present in each sample were separated electrophoretically using the LabChip 3000 capillary electrophoresis instrument. Change in the relative fluorescence intensity of the substrate and product peaks reflects enzyme activity. Reaction progress was determined as the product to sum ratio (PSR): P/(S+P), where P is the peak height of the product peptide and S is the peak height of the substrate peptide. Reactions were performed in duplicate at 12 concentrations, (3X serial dilutions starting at 30 uM). IC50 values were calculated using a 4 Parameter Logistic Model.
# SH-SY5Y cells = experiment: Cell assay in SH-SY5Y cells with HDAC-Glo 2 reagent; format: cell-based; conditions: Homo sapiens, 5 h, five hours at 37°C, CI-994 at 100 uM defined as 100% inhibition
# Protocol: SH-SY5Y cells (Sigma) were cultured in Eagle's Modified Essential Medium supplemented with 10% fetal bovine serum and pen/strep. Twenty-four hours prior to compound dosing 20 uL of cells were plated in white 384 well plates at a density of 1,500 cells/well. Compounds were serially diluted in neat DMSO and then diluted 1:100 v/v into media without FBS and mixed. Media was removed from the plated cells and the diluted compounds in serum free media (1% v/v final DMSO) were added and incubated at 37°C for five hours. Ten uL of HDAC-Glo 2 reagent with 0.1% Triton X-100 was then added, the plate was mixed and allowed to develop at room temperature for 100 minutes. Plates were then read with a Spectramax LMax luminometer employing a 0.4s integration time. Dose response curves were constructed with normalized data where CI-994 at 100 uM was defined as 100% inhibition and DMSO alone as 0% inhibition. Table 5. IC50 and EC50 Values for Exemplary Compounds Useful in the Invention
SMILES,IC50 (recombinant human HDACs) [nM],EC50 (SH-SY5Y cells) [nM]
CN1CCC(N2C[C@@H]3[C@H](C2)[C@H]3C(=O)Nc2nc(-c3ccc(F)cc3)ccc2N)CC1 (stereo in doubt) [Compound 263],500 to 5000,500 to 5000
Nc1ccc(-c2cccs2)nc1NC(=O)N1Cc2cc(CN3CCCC3)cnc2C1 [Compound 144],100 to 500,100 to 500
CN(C)Cc1cnc2c(c1)CN(C(=O)Nc1nc(-c3cccs3)ccc1N)C2 [Compound 145],100 to 500,100 to 500
CN(C)Cc1ccc(C2CN(C(=O)Nc3nc(-c4ccc(F)cc4)ccc3N)C2)cc1 [Compound 146],100 to 500,500 to 5000
CN1CC=C(c2cc3c(cn2)CN(C(=O)Nc2nc(-c4ccc(F)cc4)ccc2N)C3)CC1 [Compound 148],100 to 500,500 to 5000
CN1CCC(c2cc3c(cn2)CN(C(=O)Nc2nc(-c4ccc(F)cc4)ccc2N)C3)CC1 [Compound 149],100 to 500,100 to 500
CN(C)Cc1cnc2c(c1)CN(C(=O)Nc1nc(-c3ccc(F)cc3)ccc1N)C2 [Compound 154],100 to 500,100 to 500
Nc1ccc(-c2ccc(F)cc2)nc1NC(=O)N1Cc2cc(CN3CCCC3)cnc2C1 [Compound 155],100 to 500,100 to 500
Nc1ccc(-c2cccs2)nc1NC(=O)N1Cc2nccnc2C1 [Compound 156],100 to 500,100 to 500
CN1CCN(c2cnc3c(c2)CN(C(=O)Nc2nc(-c4ccc(F)cc4)ccc2N)C3)CC1 [Compound 159],100 to 500,500 to 5000
CN(C)Cc1cnc2c(c1)CN(C(=O)Nc1nc(-c3cccnc3)ccc1N)C2 [Compound 161],100 to 500,100 to 500
CN(C)Cc1cc2c(cn1)CN(C(=O)Nc1nc(-c3ccc(F)cc3)ccc1N)C2 [Compound 162],100 to 500,100 to 500
CN1CCc2sc(C(=O)Nc3nc(-c4ccco4)ccc3N)nc2C1 [Compound 163],100 to 500,100 to 500
COCc1cc2c(cn1)CN(C(=O)Nc1nc(-c3ccc(F)cc3)ccc1N)C2 [Compound 243],100 to 500,500 to 5000
CN1CCC(c2cnc3c(c2)CN(C(=O)Nc2nc(-c4cccs4)ccc2N)C3)CC1 [Compound 250],100 to 500,100 to 500
CN1CC=C(c2cnc3c(c2)CN(C(=O)Nc2nc(-c4cccs4)ccc2N)C3)CC1 [Compound 251],100 to 500,100 to 500
CN1CCC(c2cnc3c(c2)CN(C(=O)Nc2nc(-c4ccc(F)cc4)ccc2N)C3)CC1 [Compound 252],100 to 500,100 to 500
CN1CC=C(c2cnc3c(c2)CN(C(=O)Nc2nc(-c4ccc(F)cc4)ccc2N)C3)CC1 [Compound 253],100 to 500,100 to 500
Cn1cc2c(n1)CN(C(=O)Nc1nc(-c3ccc(F)cc3)ccc1N)C2 [Compound 257],100 to 500,100 to 500
Cn1ncc2c1CN(C(=O)Nc1nc(-c3ccc(F)cc3)ccc1N)C2 [Compound 258],500 to 5000,500 to 5000
CN1CCC(c2cnc3c(c2)CN(C(=O)Nc2nc(-c4cccnc4)ccc2N)C3)CC1 [Compound 265],500 to 5000,500 to 5000
Nc1ccc(-c2ccc(F)cc2)nc1NC(=O)N1Cc2cnc(CN3CC(F)(F)C3)cc2C1 [Compound 266],500 to 5000,500 to 5000
Nc1ccc(-c2ccc(F)cc2)nc1NC(=O)N1C[C@@H]2[C@H](C1)[C@H]2NC1COC1 [Compound 267],> 5000,> 5000
CN1CC(CN2C[C@@H]3[C@H](C2)[C@H]3C(=O)Nc2nc(-c3ccc(F)cc3)ccc2N)C1 [Compound 268],> 5000,> 5000
CN1CCN(C[C@@H]2[C@H]3CN(C(=O)Nc4nc(-c5ccc(F)cc5)ccc4N)C[C@@H]23)CC1 [Compound 269],> 5000,> 5000
Nc1ccc(-c2ccc(F)cc2)nc1NC(=O)N1C[C@@H]2[C@@H](CN3CCC3)[C@@H]2C1 [Compound 270],> 5000,> 5000

SMILES,IC50 (recombinant human HDACs) [nM],EC50 (SH-SY5Y cells) [nM]
Nc1ccc(-c2ccc(F)cc2)nc1NC(=O)N1Cc2cc(CN3CC(F)(F)C3)cnc2C1 [Compound 271],500 to 5000,500 to 5000
Nc1ccc(-c2ccc(F)cc2)nc1NC(=O)N1Cc2cc(CN3CCC3)cnc2C1 [Compound 272],100 to 500,100 to 500
Nc1ccc(-c2ccc(F)cc2)nc1NC(=O)N1Cc2cc(CN3CCC(F)(F)C3)cnc2C1 [Compound 273],100 to 500,100 to 500
CC(C)Cc1cnc2c(c1)CN(C(=O)Nc1nc(-c3ccc(F)cc3)ccc1N)C2 [Compound 274],100 to 500,100 to 500
Nc1ccc(-c2ccc(F)cc2)nc1NC(=O)N1Cc2cc(CN3CC(F)C3)cnc2C1 [Compound 275],100 to 500,100 to 500
COC[C@@H]1[C@H]2CN(C(=O)Nc3nc(-c4ccc(F)cc4)ccc3N)C[C@@H]12 [Compound 276],500 to 5000,500 to 5000
Nc1ccc(-c2ccc(F)cc2)nc1NC(=O)N1Cc2cncnc2C1 [Compound 277],500 to 5000,500 to 5000
Nc1ccc(-c2ccc(F)cc2)nc1NC(=O)N1Cc2ccc(CO)cc2C1 [Compound 366],100 to 500,500 to 5000
CN1CCN(Cc2ccc3c(c2)CN(C(=O)Nc2nc(-c4ccc(F)cc4)ccc2N)C3)CC1 [Compound 367],100 to 500,500 to 5000
CN(C)Cc1ccc2c(c1)CN(C(=O)Nc1nc(-c3ccc(F)cc3)ccc1N)C2 [Compound 371],100 to 500,500 to 5000
Nc1ccc(-c2ccc(F)cc2)nc1NC(=O)N1Cc2ccncc2C1 [Compound 373],100 to 500,500 to 5000
COCC1CCN(C(=O)Nc2nc(-c3ccc(F)cc3)ccc2N)C1 (stereo not drawn) [Compound 389],> 5000,–
Nc1ccc(-c2ccc(F)cc2)nc1NC(=O)N1CCC(C(F)(F)F)C1 (stereo not drawn) [Compound 390],500 to 5000,–
CN1CCN(c2ccc3c(n2)CN(C(=O)Nc2nc(-c4ccc(F)cc4)ccc2N)C3)CC1 [Compound 391],100 to 500,100 to 500
Nc1ccc(-c2ccc(F)cc2)nc1NC(=O)N1CC2COCC2C1 (stereo not drawn) [Compound 392],500 to 5000,–
COCc1ccc2c(c1)CN(C(=O)Nc1nc(-c3cccnc3)ccc1N)C2 [Compound 393],500 to 5000,–
CC(O)c1ccc2c(c1)CN(C(=O)Nc1nc(-c3ccc(F)cc3)ccc1N)C2 (stereo not drawn) [Compound 394],100 to 500,–
Nc1ccc(-c2cccnc2)nc1NC(=O)N1Cc2ccc(CO)cc2C1 [Compound 395],> 5000,500 to 5000
COCc1ccc2c(c1)CN(C(=O)Nc1nc(-c3ccc(F)cc3)ccc1N)C2 [Compound 396],100 to 500,–
CN(C)Cc1ccc2c(c1)CN(C(=O)Nc1nc(-c3ccc(Cl)s3)ccc1N)C2 [Compound 401],> 5000,–
Nc1ccc(-c2ccc(F)cc2)nc1NC(=O)C1CC2CCC(C1)O2 (stereo not drawn) [Compound 406],> 5000,–
Nc1cn(-c2ccccc2)nc1NC(=O)N1CCC2(CCOCC2)C1 [Compound 407],> 5000,–
Nc1ccc(-c2ccc(F)cc2)nc1NC(=O)N1Cc2ccc(CN3CCC(C(F)(F)F)C3)cc2C1 (stereo not drawn) [Compound 408],100 to 500,–
CN(C)Cc1ccc2c(c1)CN(C(=O)Nc1nc(-c3cccs3)ccc1N)C2 [Compound 409],100 to 500,–
Nc1ccc(-c2cccs2)nc1NC(=O)N1Cc2ccc(CN3CCCC3)cc2C1 [Compound 410],100 to 500,–
